Measurements from PMC12457078, “Inhibition of soluble epoxide hydrolase in endotoxin induced pig lung injury” (Frontiers in Pharmacology, 2025).
Several values for one entry are separate records, joined by “and”; a condition that tells them apart may be missing. Equal entries are not always repeated. Where two headings read alike, the source gives them in different places.

Tests used:
[1] = AEPU blood concentrations in LPS-treated pigs; type: in vivo, pig; details: for AEPU conc, In 10uL blood / AEPU conc, In analyte: listed as AEPU
Procedure: (§1) One animal served as a pharmacokinetic pilot, with arterial and venous catheters placed in a cut-down in the neck. The remaining 21 animals were used for the randomized study (Figure 1). After intubation and start of mechanical ventilation, a second auricular vein cannula was placed and infusion of either AEPU or placebo according to randomization was started. After 2 h of infusion of AEPU or placebo, an infusion of LPS was started. A bolus of 0.1 mg/kg was administered during 30 min after which the infusion rate was adjusted to 0.01 mg/kg/h. During the time between start of AEPU or placebo and LPS infusion, neck dissection was performed, exposing the v jugularis externa and carotid artery. A pulmonary artery introducer and an arterial cannula were placed in vein and artery respectively, and a pulmonary artery catheter introduced through the introducer and the tip placed in the correct position in the pulmonary artery placement guided by continuous invasive pressure monitoring or, when difficult, assisted by fluoroscopy. All surgical procedures were performed under sterile conditions.
(§2) AEPU was synthesized according to Kim et al. ([Kim et al., 2007]), delivered in 60 mg vials and dissolved in 30 mL pure ethanol as a co-solvent, of which either 20 mL was added to 980 mL of sodium chloride 9 mg/mL or 8 mL–392 mL sodium chloride, creating a solution of 0.04 mg/mL AEPU and 2% ethanol. The placebo infusion was prepared by adding either 20 mL of pure ethanol to 980 mL of sodium chloride 9 mg/mL or 8 mL of pure ethanol to 392 mL sodium chloride, creating a 2% ethanol solution. Each animal received an infusion of either 0.1 mg/kg/h AEPU or the corresponding volume of placebo solution.
All animals were monitored with pulse oximetry, heart rate, ECG, systemic arterial blood pressure (ABP), pulmonary arterial pressure (PAP), central venous pressure (CVP) temperature, tidal volumes, respiratory rate and end tidal carbon dioxide. At baseline, and at 3 h, 6 h and at the end of the experiment, pulmonary capillary wedge pressure (PCWP) was measured together with arterial and venous blood gas analyses, as well as cardiac output calculations. Routine chemistry, including creatinine, bilirubin, glucose, electrolytes were collected at baseline and at the end of the experiment (Vetscan VS2®, Abaxis, Griesheim, Germany). Blood samples for measurement of AEPU plasma concentrations, as well as oxylipins (i.e., EpETrEs and their DiHETrE corresponding diols as well as related compounds with other polyunsaturated fatty acid precursors), were collected at baseline, 6 h and at the end of the experiment. Oxylipin analysis was performed according to a previously published protocol ([Gouveia-Figueira and Nording, 2015]).

[2] = pharmacokinetic pilot, continuous infusion in one animal; type: in vivo, pig
Procedure: as §1, §2
Infusion of AEPU at 0.1 mg/kg/h produced a progressive rise in blood concentration reaching steady state of approximately 200 nM at 120 min, maintained with only minor variations until the termination of infusion at 255 min. The elimination of AEPU after termination of infusion was rapid, showing complete elimination within 15 min (Figure 2).

Structure (SMILES): CCOCCOCCOCCCCCNC(=O)NC12CC3CC(CC(C3)C1)C2 [Compound 950]
- 950 in blood spots ([1]; 6 h, individual pigs): 61 nM and 53 nM and 118 nM and 49 nM and 77 nM and 123 nM and 162 nM and 99 nM and 66 nM
- 950 in blood spots ([1]; 9 h, individual pigs): 163 nM and 42 nM and 48 nM and 79 nM and 172 nM and 149 nM
- concentration at 9 h ([1]; LPS start, average of pigs, read-out: 950 in blood spots, Average): 62 nM
- 950 in blood spots ([1]; LPS start, individual pigs): 51 nM and 47 nM and 84 nM and 48 nM and 63 nM and 96 nM and 53 nM and 65 nM and 50 nM
- concentration at 6 h ([1]; pig, whole blood (blood spots), intravenous, 0.1 mg/kg/h, 6 h, average of pigs, read-out: 950 in blood spots, Average): 90 nM
- concentration at 9 h ([1]; pig, whole blood (blood spots), intravenous, 0.1 mg/kg/h, 9 h, average of pigs, read-out: 950 in blood spots, Average): 109 nM
- AEPU conc, In 10uL blood ([1]; sample _6, individual pigs): 64.4 ng/mL and 39.4 ng/mL and 26.3 ng/mL and 24.4 ng/mL and 20.9 ng/mL and 46.8 ng/mL and 19.5 ng/mL and 30.4 ng/mL and 48.8 ng/mL
- AEPU conc, In analyte ([1]; sample _6, individual pigs): 12.9 ng/mL and 7.9 ng/mL and 5.3 ng/mL and 4.9 ng/mL and 4.2 ng/mL and 9.4 ng/mL and 3.9 ng/mL and 6.1 ng/mL and 9.8 ng/mL
- AEPU conc, In 10uL blood ([1]; sample _12, individual pigs): 68.1 ng/mL and 58.9 ng/mL and 0.0 ng/mL and 64.5 ng/mL and 16.7 ng/mL and 19.0 ng/mL and 31.2 ng/mL
- AEPU conc, In analyte ([1]; sample _12, individual pigs): 13.6 ng/mL and 11.8 ng/mL and 12.9 ng/mL and 3.3 ng/mL and 3.8 ng/mL and 6.2 ng/mL
- AEPU conc, In 10uL blood ([1]; sample _BL, individual pigs): 21.0 ng/mL and 25.7 ng/mL and 19.7 ng/mL and 20.3 ng/mL and 18.6 ng/mL and 33.4 ng/mL and 19.2 ng/mL and 25.1 ng/mL and 38.0 ng/mL
- AEPU conc, In analyte ([1]; sample _BL, individual pigs): 4.2 ng/mL and 5.1 ng/mL and 3.9 ng/mL and 4.1 ng/mL and 3.7 ng/mL and 6.7 ng/mL and 3.8 ng/mL and 5.0 ng/mL and 7.6 ng/mL
- time to complete elimination after termination of infusion ([2]; infusion 0.1 mg/kg/h): ≤ 15 min
- concentration at 0 min ([2]; pig, whole blood, intravenous, 0.1 mg/kg/h, time 0 minutes, read-out: Conc in blood 950): 11 ng/mL
- concentration at 5 min ([2]; pig, whole blood, intravenous, 0.1 mg/kg/h, time 5 minutes, read-out: Conc in blood 950): 45 ng/mL
- concentration at 35 min ([2]; pig, whole blood, intravenous, 0.1 mg/kg/h, time 35 minutes, read-out: Conc in blood 950): 116 ng/mL
- concentration at 65 min ([2]; pig, whole blood, intravenous, 0.1 mg/kg/h, time 65 minutes, read-out: Conc in blood 950): 174 ng/mL
- concentration at 121 min ([2]; pig, whole blood, intravenous, 0.1 mg/kg/h, time 121 minutes, read-out: Conc in blood 950): 199 ng/mL
- concentration at 185 min ([2]; pig, whole blood, intravenous, 0.1 mg/kg/h, time 185 minutes, read-out: Conc in blood 950): 202 ng/mL
- concentration at 255 min ([2]; pig, whole blood, intravenous, 0.1 mg/kg/h, time 255 minutes, read-out: Conc in blood 950): 224 ng/mL
- concentration at 270 min ([2]; pig, whole blood, intravenous, 0.1 mg/kg/h, time 270 minutes, read-out: Conc in blood 950): 0.189 ng/mL
- concentration at 285 min ([2]; pig, whole blood, intravenous, 0.1 mg/kg/h, time 285 minutes, read-out: Conc in blood 950): 0.189 ng/mL
- concentration at 300 min ([2]; pig, whole blood, intravenous, 0.1 mg/kg/h, time 300 minutes, read-out: Conc in blood 950): 0.189 ng/mL
- concentration at 330 min ([2]; pig, whole blood, intravenous, 0.1 mg/kg/h, time 330 minutes, read-out: Conc in blood 950): 0.189 ng/mL
- concentration at 120 min ([2]; pig, whole blood, intravenous, infusion 0.1 mg/kg/h, reached at 120 min, read-out: steady state blood concentration): ~200 nM
